In patent US20150297718A1, “ION[…] OF CATIONIC PRODRUGS FOR TOPICAL TREATMENT OF MUSCU[…] SKIN DISEASES” (priority 2014, published 2015):
Where two headings read alike, the source gives them in different places.

Columns and labels:
[1] = In vivo rat study of iontophoresis delivery on dorsal back skin: tissue and plasma drug concentrations; settings: for Drug concentration in the skin: delivered drug (prodrug or ketoprofen); for Concentration of ketoprofen converted from the prodrug in the skin: number in bracket
Description: (§1) The anode iontophoresis of ketoprofen cationic prodrugs KCE, KME and cathode iontophoresis of ketoprofen were compared with an in vivo rat study for evaluation of drug penetration into deep tissues. […] A prodrug solution was loaded in the cell. A constant current of 0.4 mA/cm^2 for iontophoresis was applied for 6 hours. At the end of the iontophoresis delivery, the rats were euthanized. The skin of the application site (under the glass cell) was washed with water, tape stripped once to remove residue drug on skin, and then dissected with a biopsy punch for the tissue layers: epidermis and dermis layer (depth 0-3 mm), subcutaneous tissue (fat pad) (3-4 mm), shallow muscle layer (4-6 mm), and deep muscle (6-10 mm). The tissues from the contralateral site were dissected with the same method. In addition, the plasma blood samples were obtained right before the experiment (time 0) and each hour during the experiment. The drug concentrations in the tissue and plasma samples were analyzed with a HPLC.
as §1, with “cationic prodrugs and cathode” for “cationic prodrugs KCE, KME and cathode”, “ketoprofen were also compared with” for “ketoprofen were compared with”, “rat study at 0.4 mA/cm^2 for a shorter duration of 2 hours for evaluation” for “rat study for evaluation”, “applied for 2 hours. At” for “applied for 6 hours. At”
as §1, with “cationic prodrugs and cathode” for “cationic prodrugs KCE, KME and cathode”, “ketoprofen were also compared with” for “ketoprofen were compared with”, “rat study at 0.057 mA/cm^2 for a duration of 6 hours for evaluation” for “rat study for evaluation”, “current of 0.057 mA/cm^2 for” for “current of 0.4 mA/cm^2 for”, “with a HPLC” for “with a HPLC.”
KPE is a prodrug of ketoprofen but with two methyl groups on the nitrogen atom, instead of three methyl groups on the nitrogen atom like KCE and KME. KPE can be presented as a hydrochloride salt. […] Anode iontophoresis delivery of KPE in this aqueous solution at 0.4 mA/cm^2 for a shorter duration of 2 hour was also conducted with the in vivo rat study.

[2] = test system: melanoma cell (A375); test: In vitro cell viability assay on melanoma cell growth; assay type: cell-based; settings: read-out: 50% inhibition concentration (IC50) on melanoma cell (A375) growth
Excerpt: The drug concentrations in the skin after the iontophoresis delivery of those prodrugs or their parent drug ketoprofen from different iontophoresis conditions are summarized in Table 2. The high drug concentration in the skin can be used for treatment of skin diseases including skin cancers such as melanoma. […] The ketoprofen concentrations in the skin from the iontophoresis delivery was not higher than its IC50 against the melanoma cell growth, but the KCE and KME concentrations in the skin from the anode iontophoresis delivery were higher than their IC50 against the melanoma cell growth. Thus, the anode iontophoresis of the prodrugs can provide high drug accumulation in the skin, and such high drug accumulation in the skin can be used for skin disease treatment.

[3] = Iontophoresis delivery into hairless rat knee joint: tissue and plasma drug concentrations; assay type: in vivo; settings: 0.4 mA/cm^2 for 20 min on knee
Description: Hairless rats were anaesthetized with isoflurane. A rubber disk shape applicator with a sponge that can hold 0.5 ml of the drug solution was used and a button Ag/AgCl electrode was used as current driving electrode. The delivery area is about 1.2 cm^2. After drug solution was loaded into the sponge, the applicator was placed on the knee cap skin and applied an electric current at 0.4 mA/cm^2 for 20 min. A return electrode was attached to the upper tail of the rat. After that, the skin was cleaned thoroughly with wet Kim wipes. The tissues (skin, muscle and joint) at the application site knee and also the contralateral site knee were collected at 30 min, 2 hr, 4 hr or 6 hr from the start of iontophoresis delivery. Three animals were used for each time point. Blood samples were also collected at appropriate time points. The tissue and blood samples were stored at −80° C. until further processing.

[4] = test system: knee arthritis pain model (monosodium iodoacetate); test: MIA knee osteoarthritis rat model treated with iontophoresis; assay type: in vivo; settings: 0.4 mA/cm^2 for 20 min on days 1, 2, 3 after MIA; versus iontophoresis of NaCl
Description: A knee arthritis pain model was established by injection of 50 μl of 60 mg/ml monosodium iodoacetate (MIA) into the left hind knee joint of 12 hairless rats, and they were divided into three groups. The knee diameters of both hind knees were measured. The difference in knee diameters between the left knee and right knee was used as the indicator of the swelling (or inflammation) of the left knee. In addition, the weight bearing of each hind limb was also measured with a Linton incapacitance tester. The percentage of the weight bearing by the left leg was used as an indicator of the pain level in the knee. At 1 day, 2 days, 3 days after the injection of MIA, the left knee of the rats in group 1 was treated with iontophoresis of NaCl to the left hind knee at 0.4 mA/cm^2 for 20 min, group 2 treated with iontophoresis of Kt to the left hind knee at 0.4 mA/cm^2 for 20 min, and group 3 treated with iontophoresis of KCE to the left hind knee at 0.4 mA/cm^2 for 20 min. The knee diameter and weight bearing were measured at day 0 before the MIA injection, and also at day 1, 2, and 3 after the MIA injection but before the iontophoresis treatment. They were also measured at day 4, 6, and 10 after the MIA injection.

[5] = In-vitro side-by-side diffusion cell study, iontophoresis across human epidermis skin; assay type: in vitro ADME; settings: KCE 26.6 μmol/ml, PE 4.9 μmol/ml, 0.2 mA
Excerpt: The efficiency in anode iontophoresis delivery of KCE and that in cathode iontophoresis delivery of ketoprofen were compared with an in-vitro side-by-side diffusion cell study. […] The human cadaver epidermis skin was sandwiched between the two half cells with stratum corneum face the donor chamber. For anode iontophoresis of KCE, KCE chloride salt solution (26.6 μmol/ml) was placed in the donor cell. For cathode iontophoresis of ketoprofen (Kt), […] solution (26.6 μmol/ml) was placed in the donor cell. Phosphate buffer solution (0.15 M at pH 7.4) was placed in the receiver chamber. Constant current 0.2 mA was applied to the diffusion cell. The amount of drug penetrated through the skin was collected in the receive chamber and analyzed with a HPLC. The anode iontophoresis of the cationic prodrug KCE delivered 4 times more drug across the skin than that delivered by the cathode iontophoresis of ketoprofen (see FIG. 4A) from the in-vitro study.
Anode iontophoresis of the cationic ketoprofen prodrug KCE (26.6 μmol/ml) with the presence of phenylephrine (PE) (4.9 μmol/ml) in solution was evaluated with an in-vitro diffusion cell study across a human epidermis skin.

[6] = iontophoresis 0.057 mA/cm^2 for 6 hrs
[7] = iontophoresis 0.4 mA/cm^2 for 2 hrs
[8] = iontophoresis 0.4 mA/cm^2 for 6 hrs

| Compound | Plasma and contralateral tissue drug concentration ([1]; 0.057 mA/cm^2 for 6 hours) | Tissue drug concentrations / direct penetration at the application site ([1]; 0.057 mA/cm^2 for 6 hours) | Drug in tissues at the contralateral site ([1]; 0.4 mA/cm^2 for 2 hours) | Plasma drug concentration ([1]; 0.4 mA/cm^2 for 2 hours) | Tissue drug concentrations / direct penetration at the application site ([1]; 0.4 mA/cm^2 for 2 hours) | Drug in tissues at the contralateral site ([1]; 0.4 mA/cm^2 for 6 hours) | Plasma drug concentration ([1]; 0.4 mA/cm^2 for 6 hours) | Tissue drug concentrations / direct penetration at the application site ([1]; 0.4 mA/cm^2 for 6 hours) | Drug concentration in the skin [1, 6] | Concentration of ketoprofen converted from the prodrug in the skin [1, 6] | Drug concentration in the skin [1, 7] | Concentration of ketoprofen converted from the prodrug in the skin [1, 7] | Drug concentration in the skin [1, 8] | Concentration of ketoprofen converted from the prodrug in the skin [1, 8] | IC50 ([2]; A375 cells) [µM] | IC50 ([2]; Homo sapiens, A-375, A375 cells) [µM] | Plasma Kt concentration [3] | Knee swelling (knee diameter difference left vs right) [4] | Weight bearing of the left leg (pain indicator) [4] | Amount penetrated across the skin by anode iontophoresis, KCE alone versus KCE with phenylephrine [5] |
| --- | --- | --- | --- | --- | --- | --- | --- | --- | --- | --- | --- | --- | --- | --- | --- | --- | --- | --- | --- | --- |
| CC(C[N+](C)(C)C)OC(=O)C(C)c1cccc(C(=O)c2ccccc2)c1.[Cl-] (stereo not drawn) [KME, Ketoprofen β-methylcholine ester chloride salt] | we can detect the parent drug Kt in the plasma and also in the contralateral tissue | direct penetration into deep tissues that is up into the deep muscles | no ketoprofen or KME was detected in the tissues at the contralateral site | no ketoprofen or KME in rat plasma was detected | direct penetration into deep tissues and prodrug retaining in the tissues of the application site | No prodrug or Kt was detected in the contralateral tissues | No prodrug or Kt was detected in the plasma | High prodrug KME concentrations in the tissues of the drug application | 3725 μmol per kilogram of skin | 73 μmol per kilogram of skin | 6128 μmol per kilogram of skin | 35 μmol per kilogram of skin | 34768 μmol per kilogram of skin | 449 μmol per kilogram of skin | 1550 | – | – | – | – | – |
| CC(C(=O)OCCCN(C)C)c1cccc(C(=O)c2ccccc2)c1.Cl (stereo not shown) [KPE] | – | – | – | lower than that from iontophoresis of Kt | Higher drug concentrations in the tissues at the drug application site than those from the contralateral site | – | – | – | – | – | 1883 μmol per kilogram of skin | 736 μmol per kilogram of skin | – | – | – | – | – | – | – | – |
| CC(C(=O)O)c1cccc(C(=O)c2ccccc2)c1 (stereo not shown) [Ketoprofen, reference compound] | – | only achieved skin deep penetration with no direct penetration into subcutaneous, shallow muscle or deep muscle tissue | – | – | only achieved skin deep penetration with no direct penetration into subcutaneous, shallow muscle or deep muscle tissue | – | high | can only penetrate skin deep | 59 μmol per kilogram of skin | – | 378 μmol per kilogram of skin | – | 417 μmol per kilogram of skin | – | – | 1400 | high initial plasma Kt concentration than iontophoresis of the cationic prodrug KCE | not as effective | not as effective | – |
| CNC[C@H](O)c1cccc(O)c1 [PE, phenylephrine, reference compound] | – | – | – | – | – | – | – | – | – | – | – | – | – | – | – | – | – | – | – | Significant amount of PE was also delivered across the skin |
